Experimental data as given in PMC9583322, “Vicinal Diaryl-Substituted Isoxazole and Pyrazole Derivatives with In Vitro Growth Inhibitory and In Vivo Antitumor Activity” (ACS Omega, 2022).

Assays:
[1] = tested on: MCF7; experiment: SRB cytotoxicity assay; assay type: cell-based, human; details: 72 h treatment
Protocol: (§1) HepG2, FOCUS, Hep3B, Mahlavu, Huh7, Hep40, and PLC-PRF-5 hepatocellular carcinoma cells; MCF-7, MDA-MB-231, MDA-MB-468, SKBR3, and ZR-75 breast cancer cells; and normal-like epithelial MCF-10A breast cells were cultured in low-glucose Dulbecco’s modified Eagle’s medium (DMEM) (Biological Industries-BI) supplemented with 10% fetal bovine serum (FBS) (Gibco/Thermo Fisher Scientific), 2 mM L-Glutamine (Gibco/Thermo Fisher Scientific), 100 Units/mL Penicillin/Streptomycin, and 0.1 mM non-essential amino acid (Gibco/Thermo Fisher Scientific). SNU475 hepatocellular carcinoma cells were maintained in RPMI (Biological Industries-BI) supplemented with 10% fetal bovine serum (FBS) (Gibco/Thermo Fisher Scientific), L-Glutamine (Gibco/Thermo Fisher Scientific), and 100 Units/mL Penicillin/Streptomycin, while ZR-75 breast cancer cells were cultured RPMI (Biological Industries-BI) supplemented with 10% fetal bovine serum (FBS) (Gibco/Thermo Fisher Scientific), 1× sodium pyruvate, and %4.5 glucose. Normal-like MCF-10A breast cells were sustained in DMEM/HAM’S F12 (Hyclone) supplemented with 10% fetal bovine serum (FBS) (Gibco/Thermo Fisher Scientific), EGF (20 ng/mL), Hydrocortisone ([…]), cholera toxin (100 ng/mL), insulin (10 μg/mL), and 100 Units/mL Penicillin/Streptomycin. The cells were cultivated at 37 °C in a humidified incubator under 5% CO2.
(§2) Mahlavu, FOCUS, SNU475 (1000 cell/well in 150 μL/well); Huh7, MCF7 (2500 cell/well in 150 μL/well); HepG2, Hep3B, SKBR3 (3000 cell/well in 150 μL/well); PLC-PRF-5, Hep40 (5000 cell/well in 150 μL/well); MDA-MB-231, MDA-MB-468, MCF10A (6000 cell/well in 150 μL/well); and ZR-75 (7500 cell/well in 150 μL/well) were cultured in 96-well plates and were inoculated in an incubator for 24 hours. The compounds were dissolved in dimethyl sulfoxide (DMSO) (Sigma, St Louis, MO) as a 20 mM stock solution. The treatment of cells with the compounds was done in a concentration range starting from 40 to 2.5 μM. The compounds which were below 2.5 μM were tested in a concentration range from 2.5 to 0.15 μM. End of the 72h compound treatment, the cells were fixed using 10% (v/v) trichloroacetic acid (MERCK) for an hour and washed with ddH2O, and left for air-drying. The fixed plates were stained with 50 μL of sulforhodamine B (SRB) solution (Sigma) at RT for 10 min. To remove unbound SRB dye, acetic acid was used to wash cells three times and left for drying. The protein-bound SRB was solubilized with 10 mM Tris-base (Sigma) and their absorbance was measured with a 96-well plate reader at 515 nm wavelength (ELx800, Biotek). The IC50 values of compounds were calculated in comparison with control group DMSO. Data with R^2 values larger than 0.9 are considered significant.

[2] = tested on: Huh7; experiment: SRB cytotoxicity assay; assay type: cell-based, human; details: 72 h treatment
Protocol: as §1, §2

Molecule | IC50 [1] [µM] | IC50 [2] [µM] | IC50 ([1]; Homo sapiens, MCF7, 72 h) [µM] | IC50 ([2]; Homo sapiens, Huh-7, 72 h) [µM] | melting point [°C]
5-Methyl-4-(2,4-difluoromethylphenyl)-3-(4-((2-methylbenzyl)oxy)phenyl)isoxazole [compound 52] | > 20 | 15 |  |  | 
5-Methyl-4-(3-fluoromethylphenyl)-3-(4-((2-methylbenzyl)oxy)phenyl)isoxazole [compound 50] | > 20 | 15 |  |  | 
COc1ccccc1COc1ccc(-c2noc(C)c2-c2ccc(Cl)cc2)cc1 [compound 12, 4-(4-Chlorophenyl)-3-(4-((2-methoxybenzyl)oxy)phenyl)-5-methylisoxazole] |  |  | > 20 | > 20 | 156.8 to 157.7
Cc1onc(-c2ccc(OCc3ccccc3OC(F)(F)F)cc2)c1-c1ccc(Cl)cc1 [compound 13, 4-(4-Chlorophenyl)-5-methyl-3-(4-((2-(trifluoromethoxy)benzyl)oxy)phenyl)isoxazole] |  |  | > 20 | 16.3 | 85.8 to 86.7
Cc1onc(-c2ccc(OCc3ccccc3OC(F)F)cc2)c1-c1ccc(Cl)cc1 [compound 14, 4-(4-Chlorophenyl)-3-(4-((2-(difluoromethoxy)benzyl)oxy)phenyl)-5-methylisoxazole] |  |  | 8.5 | 13.8 | 95.5 to 96.9
Cc1onc(-c2ccc(OCc3ccccc3F)cc2)c1-c1ccc(Cl)cc1 [compound 15, 4-(4-Chlorophenyl)-3-(4-((2-fluorobenzyl)oxy)phenyl)-5-methylisoxazole] |  |  | > 20 | > 20 | 119.5 to 120.9
Cc1onc(-c2ccc(OCc3ccccc3Cl)cc2)c1-c1ccc(Cl)cc1 [compound 16, 4-(4-Chlorophenyl)-3-(4-((2-chlorobenzyl)oxy)phenyl)-5-methylisoxazole] |  |  | > 20 | 20 | 105.2 to 106.4
Cc1onc(-c2ccc(OCc3ccccc3C#N)cc2)c1-c1ccc(Cl)cc1 [compound 17, 2-((4-(4-(4-Chlorophenyl)-5-methylisoxazol-3-yl)phenoxy)methyl)benzonitrile] |  |  | > 20 | > 20 | 111.2 to 112.5
Cc1onc(-c2ccc(OCc3ccccc3C(F)(F)F)cc2)c1-c1ccc(Cl)cc1 [compound 18, 4-(4-Chlorophenyl)-5-methyl-3-(4-((2-(trifluoromethyl)benzyl)oxy)phenyl)isoxazole] |  |  | > 20 | 14.2 | 132.8 to 134.4
COc1cccc(COc2ccc(-c3noc(C)c3-c3ccc(Cl)cc3)cc2)c1 [compound 20, 4-(4-Chlorophenyl)-3-(4-((3-methoxybenzyl)oxy)phenyl)-5-methylisoxazole] |  |  | 12 | 3.6 | 105.1 to 106.8
Cc1onc(-c2ccc(OCc3cccc(F)c3)cc2)c1-c1ccc(Cl)cc1 [compound 21, 4-(4-Chlorophenyl)-3-(4-((3-fluorobenzyl)oxy)phenyl)-5-methylisoxazole] |  |  | > 20 | > 20 | 98.1 to 99.8
Cc1onc(-c2ccc(OCc3cccc(C#N)c3)cc2)c1-c1ccc(Cl)cc1 [compound 22, 3-((4-(4-(4-Chlorophenyl)-5-methylisoxazol-3-yl)phenoxy)methyl)benzonitrile] |  |  | > 20 | 20.7 | 114.4 to 115.6
COC(=O)c1cccc(COc2ccc(-c3noc(C)c3-c3ccc(Cl)cc3)cc2)c1 [compound 23, Methyl-3-((4-(4-(4-chlorophenyl)-5-methylisoxazol-3-yl)phenoxy)methyl)benzoate] |  |  | 13 | > 20 | 121.5 to 122.8
COc1ccc(COc2ccc(-c3noc(C)c3-c3ccc(Cl)cc3)cc2)cc1 [compound 25, 4-(4-Chlorophenyl)-3-(4-((4-methoxybenzyl)oxy)phenyl)-5-methylisoxazole] |  |  | > 20 | > 20 | 126.1 to 127.4
Cc1onc(-c2ccc(OCc3ccc(F)cc3)cc2)c1-c1ccc(Cl)cc1 [compound 26, 4-(4-Chlorophenyl)-3-(4-((4-fluorobenzyl)oxy)phenyl)-5-methylisoxazole] |  |  | 13 | 19 | 99.3 to 100.7
Cc1onc(-c2ccc(OCc3ccc(C#N)cc3)cc2)c1-c1ccc(Cl)cc1 [compound 27, 4-((4-(4-(4-Chlorophenyl)-5-methylisoxazol-3-yl)phenoxy)methyl)benzonitrile] |  |  | > 20 | 11.7 | 138.5 to 139.5
COC(=O)c1ccc(COc2ccc(-c3noc(C)c3-c3ccc(Cl)cc3)cc2)cc1 [compound 28, Methyl-4-((4-(4-(4-chlorophenyl)-5-methylisoxazol-3-yl)phenoxy)methyl)benzoate] |  |  | > 20 | 12.7 | 110.7 to 111.9
Cc1onc(-c2ccc(OCc3ccc(C(=O)O)cc3)cc2)c1-c1ccc(Cl)cc1 [compound 29, 4-((4-(4-(4-Chlorophenyl)-5-methylisoxazol-3-yl)phenoxy)methyl)benzoic acid] |  |  | 15 | 8.6 | 210.8 to 212.4
Cc1cccc(COc2ccc(-c3noc(C)c3-c3ccc(Cl)cc3)cc2)c1C [compound 30, 4-(4-Chlorophenyl)-3-(4-((2,3-dimethylbenzyl)oxy)phenyl)-5-methylisoxazole] |  |  | > 20 | 15.3 | 167.2 to 168.5
Cc1ccc(COc2ccc(-c3noc(C)c3-c3ccc(Cl)cc3)cc2)c(C)c1 [compound 31, 4-(4-Chlorophenyl)-3-(4-((2,4-dimethylbenzyl)oxy)phenyl)-5-methylisoxazole] |  |  | > 20 | 10.8 | 119.7 to 122.1
Cc1onc(-c2ccc(OCc3cccnc3)cc2)c1-c1ccc(Cl)cc1 [compound 32, 4-(4-Chlorophenyl)-5-methyl-3-(4-(pyridin-3-ylmethoxy)phenyl)isoxazole] |  |  | 8.3 | 7.7 | 115.5 to 116.4
Cc1onc(-c2ccc(OCc3ccncc3)cc2)c1-c1ccc(Cl)cc1 [compound 33, 4-(4-Chlorophenyl)-5-methyl-3-(4-(pyridin-4-ylmethoxy)phenyl)isoxazole] |  |  | 14.5 | 11.4 | 124.2 to 125.8
Cc1onc(-c2ccc(OCc3ccc4ccccc4n3)cc2)c1-c1ccc(Cl)cc1 [compound 34, 4-(4-Chlorophenyl)-5-methyl-3-(4-(quinolin-2-ylmethoxy)phenyl)isoxazole] |  |  | > 20 | 9.1 | 164.7 to 165.8
Cc1ncccc1COc1ccc(-c2noc(C)c2-c2ccc(Cl)cc2)cc1 [compound 35, 4-(4-Chlorophenyl)-5-methyl-3-(4-((2-methylpyridin-3-yl)methoxy)phenyl)isoxazole] |  |  | 6.1 | 3.9 | 107.2 to 108.8
Cc1cccnc1COc1ccc(-c2noc(C)c2-c2ccc(Cl)cc2)cc1 [compound 36, 4-(4-Chlorophenyl)-5-methyl-3-(4-((3-methylpyridin-2-yl)methoxy)phenyl)isoxazole] | > 20 |  | ≥ 20 | 9.4 | 138.7 to 141.2
Cc1cccc(COc2ccc(-c3noc(C)c3-c3ccc(Cl)cc3)cc2)n1 [compound 37, 4-(4-Chlorophenyl)-5-methyl-3-(4-((6-methylpyridin-2-yl)methoxy)phenyl)isoxazole] |  |  | 12.9 | 6.9 | 126.1 to 127.5
Cc1onc(-c2ccc(OCc3ccc(Cl)nc3)cc2)c1-c1ccc(Cl)cc1 [compound 38, 4-(4-Chlorophenyl)-3-(4-((6-chloropyridin-3-yl)methoxy)phenyl)-5-methylisoxazole] |  |  | > 20 | > 20 | 168.2 to 170.8
